Test results reported in US9497970B2, “Pesticide compounds” (priority 2013, dated 2016).

Experiments:
Assay type in all cases: in vivo
[1] = tested on: Diamond Back Moth (Plutella xylostella); assay: B.1 Diamond Back Moth (Plutella xylostella), cabbage leaf dip; conditions: foliar, 500 ppm, 3rd instar larvae on dipped cabbage leaves, 72 hours after treatment, in comparison with untreated controls, read-out: mortality
Procedure: B.1 Diamond Back Moth (Plutella xylostella)
The active compound was dissolved at the desired concentration in a mixture of 1:1 (vol:vol) distilled water:aceteone. Surfactant (Kinetic HV) was added at a rate of 0.01% (vol/vol). The test solution was prepared at the day of use.
Leaves of cabbage were dipped in test solution and air-dried. Treated leaves were placed in petri dishes lined with moist filter paper and inoculated with ten 3rd instar larvae. Mortality was recorded 72 hours after treatment. Feeding damages were also recorded using a scale of 0-100%.

[2] = tested on: Boll Weevil (Anthonomus grandis); assay: B.3 Boll Weevil (Anthonomus grandis), microtiter plate insect diet; conditions: 120 h, 800 ppm, sprayed onto insect diet, 5 days, in comparison with untreated controls, read-out: mortality (egg and larval)
Procedure: B.3 Boll Weevil (Anthonomus grandis)
For evaluating control of boll weevil (Anthonomus grandis) the test unit consisted of 96-well-microtiter plates containing an insect diet and 5-10 A. grandis eggs.
(§1) The compounds were formulated using a solution containing 75% v/v water and 25% v/v DMSO. Different concentrations of formulated compounds were sprayed onto the insect diet at 5 μl, using a custom built micro atomizer, at two replications.
After application, microtiter plates were incubated at about 25±1° C. and about 75±5% relative humidity for 5 days. Egg and larval mortality was then visually assessed.

[3] = tested on: Mediterranean Fruitfly (Ceratitis capitata); assay: B.6 Mediterranean Fruitfly (Ceratitis capitata), microtiter plate insect diet; conditions: 120 h, 800 ppm, sprayed onto insect diet, 5 days, in comparison with untreated controls, read-out: mortality (egg and larval)
Procedure: B.6 Mediterranean Fruitfly (Ceratitis capitata)
For evaluating control of Mediterranean fruitfly (Ceratitis capitata) the test unit consisted of microtiter plates containing an insect diet and 50-80 C. capitata eggs.
as §1
(§2) After application, microtiter plates were incubated at about 28±1° C. and about 80±5% relative humidity for 5 days. Egg and larval mortality was then visually assessed.

[4] = tested on: Tobacco Budworm (Heliothis virescens); assay: B.7 Tobacco Budworm (Heliothis virescens) I, microtiter plate insect diet; conditions: 120 h, 800 ppm, sprayed onto insect diet, 5 days, in comparison with untreated controls, read-out: mortality (egg and larval)
Procedure: B.7 Tobacco Budworm (Heliothis virescens) I
as §1, with “For evaluating control of tobacco budworm (Heliothis virescens) the test unit consisted of 96-well-microtiter plates containing an insect diet and 15-25 H. virescens eggs. The” for “The”, “at 10” for “at 5”
as §2

[5] = tested on: Southern Armyworm (Spodoptera eridania), 2nd Instar Larvae; assay: B.10 Southern Armyworm (Spodoptera eridania), 2nd Instar Larvae, sprayed lima bean plants; conditions: 96 h, 300 ppm, larvae on sprayed lima bean plants, 4 days after treatment, in comparison with untreated controls, read-out: mortality
Procedure: B.10 Southern Armyworm (Spodoptera eridania), 2nd Instar Larvae
The active compounds were formulated by a Tecan liquid handler in 100% cyclohexanone as a 10,000 ppm solution supplied in tubes. The 10,000 ppm solution was serially diluted in 100% cyclohexanone to make interim solutions. These served as stock solutions for which final dilutions were made by the Tecan in 50% acetone:50% water (v/v) into 5 or 10 ml glass vials. A nonionic surfactant (Kinetic®) was included in the solution at a volume of 0.01% (v/v). The vials were then inserted into an automated electrostatic sprayer equipped with an atomizing nozzle for application to plants/insects.
Lima bean plants (variety Sieva) were grown 2 plants to a pot and selected for treatment at the 1st true leaf stage. Test solutions were sprayed onto the foliage by an automated electrostatic plant sprayer equipped with an atomizing spray nozzle. The plants were dried in the sprayer fume hood and then removed from the sprayer. Each pot was placed into perforated plastic bags with a zip closure. About 10 to 11 armyworm larvae were placed into the bag and the bags zipped closed. Test plants were maintained in a growth room at about 25° C. and about 20-40% relative humidity for 4 days, avoiding direct exposure to fluorescent light (24 hour photoperiod) to prevent trapping of heat inside the bags. Mortality and reduced feeding were assessed 4 days after treatment, compared to untreated control plants.

[6] = tested on: Yellow Fever Mosquito (Aedes aegypti); assay: whole plant or invertebrate; conditions: 48 h, freshly hatched larvae in tap water, 2 days, in comparison with untreated controls, read-out: mortality (larval)
Procedure: B.11 Yellow Fever Mosquito (Aedes aegypti)
For evaluating control of yellow fever mosquito (Aedes aegypti) the test unit consisted of 96-well-microtiter plates containing 200 μl of tap water per well and 5-15 freshly hatched A. aegypti larvae.
The active compounds were formulated using a solution containing 75% (v/v) water and 25% (v/v) DMSO. Different concentrations of formulated compounds or mixtures were sprayed onto the insect diet at 2.5 μl, using a custom built micro atomizer, at two replications.

[7] = tested on: Orchid thrips (dichromothrips corbetti); assay: B.12 Orchid thrips (dichromothrips corbetti), floral-immersion technique; conditions: adult thrips on dipped orchid petals, 72 hours after treatment, in comparison with untreated controls
Procedure: B.12 Orchid thrips (dichromothrips corbetti)
Dichromothrips corbetti adults used for bioassay were obtained from a colony maintained continuously under laboratory conditions. For testing purposes, the test compound is diluted in a 1:1 mixture of acetone:water (vol:vol), plus Kinetic HV at a rate of 0.01% v/v.
Thrips potency of each compound was evaluated by using a floral-immersion technique. All petals of individual, intact orchid flowers were dipped into treatment solution and allowed to dry in Petri dishes. Treated petals were placed into individual resealable plastic along with about 20 adult thrips. All test arenas were held under continuous light and a temperature of about 28° C. for duration of the assay. After 3 days, the numbers of live thrips were counted on each petal. The percent mortality was recorded 72 hours after treatment.

CCc1ccccc1NC(=S)N/N=C/c1ccc2c(ccc3c2ncn3-c2ccc(OC(F)(F)F)cc2)c1 [C-22, 3-(2-ethylphenyl)-1-[[3-[4-(trifluoromethoxy)phenyl]-9aH-benzo[e]benzimidazol-7-ylidene]methylimino] isothiourea]
≥ 75%: mortality at 500 ppm [1] | mortality at 800 ppm [2] | mortality at 800 ppm [3] | mortality at 800 ppm [4] | mortality at 300 ppm [5] | mortality at 800 ppm [6] | mortality at 500 ppm [7]

Cc1ccccc1NC(=S)N/N=C/c1ccc2c(ccc3c2ncn3-c2ccc(OC(F)(F)F)cc2)c1 [C-23, 3-(o-tolyl)-1-[[3-[4-(trifluoromethoxy)phenyl]-9aH-benzo[e]benzimidazol-7-ylidene]methylimino]isothiourea]
≥ 75%: mortality at 500 ppm [1] | mortality at 800 ppm [2] | mortality at 800 ppm [3] | mortality at 800 ppm [4] | mortality at 300 ppm [5] | mortality at 500 ppm [7]

FC(F)(F)Oc1ccc(-n2cnc3c4ccc(/C=N/NC(=S)Nc5c(Cl)cccc5Cl)cc4ccc32)cc1 [C-37, 1-(2,6-dichlorophenyl)-3-[(E)-[3-[4-(trifluoromethoxy)phenyl]benzo[e]benzimidazol-7-yl]methyleneamino] thiourea]
≥ 75%: mortality at 500 ppm [1] | mortality at 800 ppm [2] | mortality at 800 ppm [3] | mortality at 800 ppm [4] | mortality at 800 ppm [6] | mortality at 500 ppm [7]

Cc1ccc(C)c(NC(=S)N/N=C/c2ccc3c(ccc4c3ncn4-c3ccc(OC(F)(F)F)cc3)c2)c1 [C-41, 1-(2,5-dimethylphenyl)-3-[(E)-[3-[4-(trifluoromethoxy)phenyl]benzo[e]benzimidazol-7-yl]methyleneamino] thiourea]
≥ 75%: mortality at 500 ppm [1] | mortality at 800 ppm [2] | mortality at 800 ppm [3] | mortality at 800 ppm [4] | mortality at 800 ppm [6] | mortality at 500 ppm [7]

Cc1cccc(C)c1NC(=S)N/N=C/c1ccc2c(c1)sc1c2ncn1-c1ccc(OC(F)(F)F)cc1 [C-47, 1-(2,6-dimethylphenyl)-3-[(E)-[3-[4-(trifluoromethoxy)phenyl]benzothiopheno[2,3-d]imidazol-6-yl]methyleneamino]thiourea]
≥ 75%: mortality at 500 ppm [1] | mortality at 800 ppm [2] | mortality at 800 ppm [3] | mortality at 800 ppm [4] | mortality at 800 ppm [6]

COc1cccc(C)c1NC(=S)N/N=C/c1ccc2c(ccc3c2ncn3-c2ccc(OC(F)(F)F)cc2)c1 [C-65, 1-(2-methoxy-6-methyl-phenyl)-3-[(E)-[3-[4-(trifluoromethoxy)phenyl]benzo[e]benzimidazol-7-yl]methyleneamino] thiourea]
≥ 75%: mortality at 500 ppm [1] | mortality at 800 ppm [2] | mortality at 800 ppm [3] | mortality at 800 ppm [4] | mortality at 800 ppm [6] | mortality at 500 ppm [7]

CCc1cccnc1NC(=S)N/N=C/c1ccc2c(ccc3c2ncn3-c2ccc(OC(F)(F)F)cc2)c1 [C-68, 1-(3-ethyl-2-pyridyl)-3-[(E)-[3-[4-(trifluoromethoxy)phenyl]benzo[e]benzimidazol-7-yl]methyleneamino] thiourea]
≥ 75%: mortality at 500 ppm [1] | mortality at 800 ppm [2] | mortality at 800 ppm [3] | mortality at 300 ppm [5]

Fc1cccc(F)c1NC(=S)N/N=C/c1ccc2c(ccc3c2ncn3-c2ccc(OC(F)(F)F)cc2)c1 [C-71, 1-(2,6-difluorophenyl)-3-[(E)-[3-[4-(trifluoromethoxy)phenyl]benzo[e]benzimidazol-7-yl]methyleneamino] thiourea]
≥ 75%: mortality at 800 ppm [2] | mortality at 800 ppm [3] | mortality at 800 ppm [4] | mortality at 300 ppm [5]

CCc1cccc(CC)c1NC(=S)N/N=C/c1ccc2c(ccc3c(-c4ccc(OC(F)(F)F)cc4)n(C)nc32)c1 [C-93, 1-(2,6-diethylphenyl)-3-[(E)-[2-methyl-3-[4-(trifluoromethoxy)phenyl]benzo [g]indazol-7-yl]methyleneamino] thiourea]
≥ 75%: mortality at 500 ppm [1] | mortality at 800 ppm [2] | mortality at 800 ppm [4] | mortality at 800 ppm [6] | mortality at 500 ppm [7]

Cc1cccc(C)c1NC(=S)N/N=C/c1ccc2c(c1)CCC1C2=NN(C)C1c1ccc(OC(F)(F)F)cc1 (stereo not drawn) [C-94, 1-(2,6-dimethylphenyl)-3-[(E)-[2-methyl-3-[4-(trifluoromethoxy)phenyl]-3,3a,4,5-tetrahydrobenzo[g]indazol-7-yl]methyleneamino]thiourea]
≥ 75%: mortality at 500 ppm [1] | mortality at 800 ppm [2] | mortality at 800 ppm [4] | mortality at 800 ppm [6] | mortality at 500 ppm [7]

Cc1cccc(C)c1NC(=S)N/N=C/c1ccc2c(ccc3c(-c4ccc(OC(F)(F)F)cc4)n(C)nc32)c1 [C-96, 1-(2,6-dimethylphenyl)-3-[(E)-[2-methyl-3-[4-(trifluoromethoxy)phenyl]benzo[g]indazol-7-yl]methyleneamino] thiourea]
≥ 75%: mortality at 500 ppm [1] | mortality at 800 ppm [2] | mortality at 800 ppm [3] | mortality at 800 ppm [4] | mortality at 800 ppm [6] | mortality at 500 ppm [7]

COc1cccc(C)c1NC(=S)N/N=C/c1ccc2c(ccc3c(-c4ccc(OC(F)(F)F)cc4)n(C)nc32)c1 [C-97, 1-(2-methoxy-6-methyl-phenyl)-3-[(E)-[2-methyl-3-[4-(trifluoromethoxy)phenyl]benzo[g]indazol-7-yl]methyleneamino]thiourea]
≥ 75%: mortality at 500 ppm [1] | mortality at 800 ppm [2] | mortality at 800 ppm [3] | mortality at 800 ppm [4] | mortality at 800 ppm [6]

Cc1cccc(C)c1NC(=S)N/N=C/c1ccc2c(ccc3c2ncn3-c2ccc(Cl)cc2)c1 [C-106, 1-[(E)-[3-(4-chlorophenyl)benzo[e]benzimidazol-7-yl]methyleneamino]-3-(2,6-dimethylphenyl)thiourea]
≥ 75%: mortality at 800 ppm [2] | mortality at 800 ppm [3] | mortality at 800 ppm [4] | mortality at 300 ppm [5] | mortality at 800 ppm [6]

CC(C)c1ccccc1N1C(=O)CS/C1=N\C(=O)Nc1ccc2c(ccc3c2ncn3-c2ccc(OC(F)(F)F)cc2)c1 [C-115, (1Z)-1-[3-(2-isopropylphenyl)-4-oxo-thiazolidin-2-ylidene]-3-[3-[4(trifluoromethoxy)phenyl]benzo[e]benzimidazol-7-yl]urea]
≥ 75%: mortality at 800 ppm [2] | mortality at 800 ppm [3] | mortality at 800 ppm [4] | mortality at 800 ppm [6]

CC(C)c1ccccc1N/C(S)=N/C(=O)Nc1ccc2c(ccc3c2ncn3-c2ccc(OC(F)(F)F)cc2)c1 [C-117, (1Z)-1-[(2-isopropylanilino)-sulfanyl-methylene]-3-[3-[4-(trifluoromethoxy)phenyl]benzo[e]benzimidazol-7-yl]urea]
≥ 75%: mortality at 800 ppm [2] | mortality at 800 ppm [3] | mortality at 800 ppm [4] | mortality at 800 ppm [6]
